Measured values published in patent US20240269298A1, “PHOSPHONYL DERIVATIVE, AND COMPOSITION AND PHARMACEUTICAL APPLICATION THEREOF” (XIZANG HAISCO PHARMACEUTICAL CO., LTD., priority 2021, published 2024).
Read-outs that look alike come from different tables or passages of the source.

Experiments:
[1] = tested on: NCI-H1975 (EGFR-L858R-T790M) cells; assay: Inhibitory activity on proliferation of NCI-H1975 (EGFR-L858R-T790M) cells (CTG, 72 h); assay type: cell-based; settings: Homo sapiens
In short: (§1)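 Cells plated at 1000/well (NCI-H1975, RPMI1640+10% FBS) or 3000/well (A431, DMEM+10% FBS), dosed next day with compounds (0.1% DMSO final) for 72 h at 37 °C, 5% CO2. Viability by CTG luminescence, normalised to vehicle control; IC50 from nonlinear-regression dose-survival curves.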

A431 (EGFR-WT) cells = assay: Inhibitory activity on proliferation of A431 (EGFR-WT) cells (CTG, 72 h); assay type: cell-based; settings: Homo sapiens, A-431
In short: as §1

[2] = tested on: NCI-H1975 EGFR-L858R-T790M-C797S cells; assay: Inhibitory activity on proliferation of NCI-H1975 EGFR-L858R-T790M-C797S cells (CellTiter-Glo, 72 h); assay type: cell-based; settings: Homo sapiens
Protocol: NCI-H1975 EGFR-L858R-T790M-C797S cells were cultured in an incubator at 37° C. with 5% CO2, and the culture medium was RPMI1640+10% FBS+100 μg/mL hygromycin. The cells in the logarithmic phase were collected, and the cell suspension was adjusted to an appropriate concentration with a hygromycin-free culture medium, and then plated on a 96-well plate at a density of 1500 cells/well and a volume of 90 μL. 10 μL of the compounds at different concentrations were added, and a vehicle control group (cells plus DMSO) was provided, wherein the concentration of DMSO was 0.1%. The cell culture plate was cultured in an incubator at 37° C. with 5% CO2 for 72 hours. After the incubation was completed, according to operation instructions for a CellTiter-Glo kit (Promega, G7572), 50 μL of CTG solution, which was already pre-melted and equilibrated to room temperature, was added to each well, and the mixtures were uniformly mixed for 2 min using a microplate shaker. The plate was placed at room temperature for 10 min, and then […] signal values were measured using a microplate reader (Envision 2104). […] was processed based on formula (2), and using the GraphPad Prism 5.0 software and nonlinear regression model, S-shaped dose-survival curves were plotted, and IC50 values were calculated. wherein Vsample was the readout of the drug-treated group, and Vvehicle control was the readout of the control group.

[3] = Pharmacokinetic test in mice; assay type: in vivo; settings: male, ICR, mouse, po, administration i.g. (10 mg/kg), plasma
In short: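 Male ICR mice (20-25 g), fasted 12-14 h before dosing and fed 4 h after, received a single intravenous or intragastric dose. Orbital plasma sampled from 0 to 24 h (5 min-24 h points); LC-MS/MS quantitation for PK parameters and bioavailability.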

[4] = biological target: T1, EGFR protein in NCI-H1975 EGFR-L858R-T790M-C797S cells (Homo sapiens, UniProt P00533, C797S/L858R/T790M); assay: Degradation activity on EGFR protein in NCI-H1975 EGFR-L858R-T790M-C797S cells, Method I (western blot, 72 h); assay type: cell-based; settings: 72 h incubation, EGFR protein relative to DMSO control
T1 construct: expressed in transfected cells; host or cells: NCI-H1975 EGFR-L858R-T790M-C797S (kept under hygromycin selection)
Protocol: Protein sample preparation: NCI-H1975 EGFR-L858R-T790M-C797S cells were cultured in an incubator at 37° C. with 5% CO2, and the culture medium was RPMI1640+10% FBS+100 μg/mL hygromycin. The cells in the logarithmic phase were collected, and the cell suspension was adjusted to an appropriate concentration with a hygromycin-free culture medium, plated on a 6-well plate at a density of 200000 cells/well and a volume of 2 mL, and cultured overnight in an incubator at 37° C. with 5% CO2. The next day, the compounds at different concentrations were added. DMSO control wells were provided, wherein the concentration of DMSO in all wells was 0.1%. The 6-well plate was cultured in an incubator at 37° C. with 5% CO2 for 72 h, and then 30 μL of RIPA lysates (Beyotime, Cat. P0013B) containing protease inhibitors (Beyotime, Cat. P0013B) were added. The mixtures were lysed on ice for 30 min. Centrifugation was carried out at 13000 rpm/min at 4° C. for 20 min to collect protein supernatant samples, and protein quantification was performed by the BCA method. Samples for western blot detection were prepared.
Western blot detection: 20 μg of protein samples were added to each well, subjected to polyacrylamide gel electrophoresis and transferred to a membrane, and then diluted anti-EGFR (CST, Cat. 4267S) and […] (Kangchen, Cat. KC-5G4) antibodies were added and incubated overnight at 4° C. After washing the membrane, diluted goat anti-rabbit (Licor, Cat. 926-32211) and goat anti-mouse (Licor, Cat. 926-68070) antibodies were added and incubated in the dark for 45 min. Scanning and detection at wavelengths of 700 nm and 800 nm were performed with a far-infrared imaging system (Odyssey).
According to formula (3), the expression level of EGFR protein in the cells relative to the DMSO control group was calculated after incubation with different concentrations of compounds. wherein EGFRcompound was the fluorescence value of EGFR protein after incubation with compounds, and EGFRvehicle was the fluorescence value of EGFR protein in the DMSO control group. Using the Origin 9.2 software, the drug concentration DC50 values when the expression level of EGFR protein was 50% relative to the DMSO control group were calculated.

[5] = read-out: IC50 (value in brackets)

T1 sequence (P00533 25-1210 T790M/C797S/L858R): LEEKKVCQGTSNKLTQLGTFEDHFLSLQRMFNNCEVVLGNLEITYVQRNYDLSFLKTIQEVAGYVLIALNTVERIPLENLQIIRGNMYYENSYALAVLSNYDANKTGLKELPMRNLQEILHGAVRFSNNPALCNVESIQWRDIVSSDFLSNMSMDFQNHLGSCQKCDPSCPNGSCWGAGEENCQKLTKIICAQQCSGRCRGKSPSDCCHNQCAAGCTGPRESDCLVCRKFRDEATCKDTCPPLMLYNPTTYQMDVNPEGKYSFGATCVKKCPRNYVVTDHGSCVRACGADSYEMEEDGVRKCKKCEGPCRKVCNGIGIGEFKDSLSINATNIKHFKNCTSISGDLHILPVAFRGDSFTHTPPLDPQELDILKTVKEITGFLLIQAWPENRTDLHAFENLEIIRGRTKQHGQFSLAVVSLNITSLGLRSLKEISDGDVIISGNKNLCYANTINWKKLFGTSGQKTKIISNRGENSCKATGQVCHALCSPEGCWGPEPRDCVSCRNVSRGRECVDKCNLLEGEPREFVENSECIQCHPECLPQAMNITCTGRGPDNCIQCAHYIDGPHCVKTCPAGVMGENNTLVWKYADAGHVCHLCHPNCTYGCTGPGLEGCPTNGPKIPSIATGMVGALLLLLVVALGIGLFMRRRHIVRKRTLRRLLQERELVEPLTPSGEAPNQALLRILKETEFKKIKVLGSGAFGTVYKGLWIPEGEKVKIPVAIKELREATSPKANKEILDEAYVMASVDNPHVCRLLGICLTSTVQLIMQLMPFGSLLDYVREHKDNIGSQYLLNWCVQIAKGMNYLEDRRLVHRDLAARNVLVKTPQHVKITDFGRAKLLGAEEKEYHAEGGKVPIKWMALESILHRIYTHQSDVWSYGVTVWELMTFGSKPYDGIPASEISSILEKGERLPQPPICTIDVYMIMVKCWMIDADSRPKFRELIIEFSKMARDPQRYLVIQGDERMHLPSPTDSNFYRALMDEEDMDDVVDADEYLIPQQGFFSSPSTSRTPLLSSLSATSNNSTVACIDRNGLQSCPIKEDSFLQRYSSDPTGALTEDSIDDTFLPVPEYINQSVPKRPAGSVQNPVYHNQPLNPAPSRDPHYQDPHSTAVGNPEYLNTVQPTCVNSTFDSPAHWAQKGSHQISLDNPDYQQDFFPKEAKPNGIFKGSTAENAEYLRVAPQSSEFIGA

SMILES | IC50 ([1]; read-out: IC50 (class symbol)) | IC50 [1, 5] | IC50 (A431 (EGFR-WT) cells) | IC50 ([2]; read-out: IC50 (class symbol)) | IC50 ([2]; read-out: IC50 (value)) | AUC(0-t) [3] | DC50 [4] | AUC [3] | half-life [3]
COc1cc(N2CCN(CC3CCN(c4ccc5c(c4)C(=O)N(C4CCC(=O)NC4=O)C5=O)C3)CC2)c(-c2cnn(C)c2)cc1Nc1ncc(Cl)c(Nc2ccc(-c3ccccc3)cc2P(C)(C)=O)n1 (centres unmarked) [Compound 68, 5-(3-((4-(4-((5-chloro-4-((3-(dimethylphosphoryl)-[1,1′-biphenyl]-4-yl)amino)pyrimidin-2-yl)amino)-5-methoxy-2-(1-methyl-1H-pyrazol-4-yl)phenyl)piperazin-1-yl)methyl)pyrrolidin-1-yl)-2-(2,6-dioxopiperidin-3-yl)isoindoline-1,3-dione] | < 100 nM | 66 nM | ≥ 10000 nM | 200 to 500 nM | 280 nM | – | < 100 nM | 53200 ng·h/mL | 3.47 h
COc1cc(N2CCN(CC3CCN(c4ccc5c(c4)C(=O)N(C4CCC(=O)NC4=O)C5=O)CC3)CC2)c(-c2cnn(C)c2)cc1Nc1ncc(Br)c(Nc2ccc(-c3ccccc3F)cc2P(C)(C)=O)n1 (centres unmarked) [Compound 96, 5-(4-((4-(4-((5-bromo-4-((3-(dimethylphosphoryl)-2′-fluoro-[1,1′-biphenyl]-4-yl)amino)pyrimidin-2-yl)amino)-5-methoxy-2-(1-methyl-1H-pyrazol-4-yl)phenyl)piperazin-1-yl)methyl)piperidin-1-yl)-2-(2,6-dioxopiperidin-3-yl)isoindoline-1,3-dione] | < 100 nM | 36 nM | ≥ 10000 nM | < 200 nM | 60 nM | 47000 ng·h/mL | < 100 nM | – | –
COc1cc(N2CCN(C3CCN(c4ccc5c(c4)C(=O)N(C4CCC(=O)NC4=O)C5=O)CC3)CC2)c(-c2cnn(C)c2)cc1Nc1ncc(Cl)c(Nc2ccc(-c3ccccc3)cc2P(C)(C)=O)n1 (centres unmarked) [Compound 100, 5-(4-(4-(4-((5-chloro-4-((3-(dimethylphosphoryl)-[1,1′-biphenyl]-4-yl)amino)pyrimidin-2-yl)amino)-5-methoxy-2-(1-methyl-1H-pyrazol-4-yl)phenyl)piperazin-1-yl)piperidin-1-yl)-2-(2,6-dioxopiperidin-3-yl)isoindoline-1,3-dione] | < 100 nM | 48 nM | ≥ 10000 nM | < 200 nM | 84 nM | – | < 100 nM | 33300 ng·h/mL | 2.49 h
COc1cc(N2CCC(N3CCC4(CCN(c5ccc6c(c5)C(=O)N(C5CCC(=O)NC5=O)C6=O)CC4)CC3)CC2)c(-c2cnn(C)c2)cc1Nc1ncc(Br)c(Nc2ccc(-c3ccccc3)cc2P(C)(C)=O)n1 (centres unmarked) [Compound 84, 5-(9-(1-(4-((5-bromo-4-((3-(dimethylphosphoryl)-[1,1′-biphenyl]-4-yl)amino)pyrimidin-2-yl)amino)-5-methoxy-2-(1-methyl-1H-pyrazol-4-yl)phenyl)piperidin-4-yl)-3,9-diazaspiro[5.5]undecan-3-yl)-2-(2,6-dioxopiperidin-3-yl)isoindoline-1,3-dione] | < 100 nM | 43 nM | ≥ 10000 nM | < 200 nM | 47 nM | 4570 ng·h/mL | < 100 nM | – | –
COc1cc(N2CCC(N3CCN(CC4CCN(c5ccc6c(c5)C(=O)N(C5CCC(=O)NC5=O)C6=O)CC4)CC3)CC2)c(C2CC2)cc1Nc1ncc(Br)c(Nc2ccc3nccnc3c2P(C)(C)=O)n1 (centres unmarked) [Compound 2, 5-(4-((4-(1-(4-((5-bromo-4-((5-(dimethylphosphoryl)quinoxalin-6-yl)amino)pyrimidin-2-yl)amino)-2-cyclopropyl-5-methoxyphenyl)piperidin-4-yl)piperazin-1-yl)methyl)piperidin-1-yl)-2-(2,6-dioxopiperidin-3-yl)isoindoline-1,3-dione] | 100 to 500 nM | 151 nM | ≥ 10000 nM | 200 to 500 nM | 299 nM | – | < 100 nM | – | –

The next lines start with the values.

IC50 ([1]; read-out: IC50 (class symbol)) | IC50 [1, 5] | IC50 (A431 (EGFR-WT) cells) | IC50 ([2]; read-out: IC50 (class symbol)) | IC50 ([2]; read-out: IC50 (value)) | AUC(0-t) [3] | DC50 [4] | AUC [3] | half-life [3] | SMILES
< 100 nM | 62 nM | ≥ 10000 nM | < 200 nM | 79 nM | 42300 ng·h/mL | < 100 nM | – | – | COc1cc(N2CCN(CC3CCN(c4ccc5c(c4)C(=O)N(C4CCC(=O)NC4=O)C5=O)CC3)CC2)c(-c2cnn(C)c2)cc1Nc1ncc(Cl)c(Nc2ccc(-c3ccccc3F)cc2P(C)(C)=O)n1 (centres unmarked) [Compound 97, 5-(4-((4-(4-((5-chloro-4-((3-(dimethylphosphoryl)-2′-fluoro-[1,1′-biphenyl]-4-yl)amino)pyrimidin-2-yl)amino)-5-methoxy-2-(1-methyl-1H-pyrazol-4-yl)phenyl)piperazin-1-yl)methyl)piperidin-1-yl)-2-(2,6-dioxopiperidin-3-yl)isoindoline-1,3-dione]
< 100 nM | 71 nM | ≥ 10000 nM | < 200 nM | 49 nM | 51000 ng·h/mL | < 100 nM | – | – | COc1cc(N2CCC(N3CCN(c4ccc5c(c4)C(=O)N(C4CCC(=O)NC4=O)C5=O)CC3)CC2)c(-c2cnn(C)c2)cc1Nc1ncc(Br)c(Nc2ccc(-c3ccccc3)cc2P(C)(C)=O)n1 (centres unmarked) [Compound 81, 5-(4-(1-(4-((5-bromo-4-((3-(dimethylphosphoryl)-[1,1′-biphenyl]-4-yl)amino)pyrimidin-2-yl)amino)-5-methoxy-2-(1-methyl-1H-pyrazol-4-yl)phenyl)piperidin-4-yl)piperazin-1-yl)-2-(2,6-dioxopiperidin-3-yl)isoindoline-1,3-dione]
< 100 nM | 71 nM | ≥ 10000 nM | < 200 nM | 65 nM | – | < 100 nM | 63000 ng·h/mL | 6.88 h | COc1cc(N2CCC(N3CCN(c4ccc5c(c4)C(=O)N(C4CCC(=O)NC4=O)C5=O)CC3)CC2)c(-c2cnn(C)c2)cc1Nc1ncc(Cl)c(Nc2ccc(-c3ccccc3)cc2P(C)(C)=O)n1 (centres unmarked) [Compound 92, 5-(4-(1-(4-((5-chloro-4-((3-(dimethylphosphoryl)-[1,1′-biphenyl]-4-yl)amino)pyrimidin-2-yl)amino)-5-methoxy-2-(1-methyl-1H-pyrazol-4-yl)phenyl)piperidin-4-yl)piperazin-1-yl)-2-(2,6-dioxopiperidin-3-yl)isoindoline-1,3-dione]
< 100 nM | 38 nM | ≥ 10000 nM | < 200 nM | 32 nM | 21700 ng·h/mL | < 100 nM | – | – | COc1cc(N2CCC(CN3CCC4(CC3)CCN(c3ccc5c(c3)C(=O)N(C3CCC(=O)NC3=O)C5=O)CC4)CC2)c(-c2cnn(C)c2)cc1Nc1ncc(Br)c(Nc2ccc(-c3ccccc3)cc2P(C)(C)=O)n1 (centres unmarked) [Compound 37, 5-(9-((1-(4-((5-bromo-4-((3-(dimethylphosphoryl)-[1,1′-biphenyl]-4-yl)amino)pyrimidin-2-yl)amino)-5-methoxy-2-(1-methyl-1H-pyrazol-4-yl)phenyl)piperidin-4-yl)methyl)-3,9-diazaspiro[5.5]undecan-3-yl)-2-(2,6-dioxopiperidin-3-yl)isoindoline-1,3-dione]
